Tests used:
[1] = target: amyloid β peptide aggregates (1-40) (Homo sapiens (Human), UniProt P05067); format: binding; conditions: for IC50: aggregates 1 μM, thioflavin-T 3 μM, compound 0.02 to 20 μM, 30 minutes at 23° C., read-out: Amyloid binding property (IC50); for binding to amyloid β peptide aggregates (in words): thioflavin-T fluorescence inhibition
Description: The binding capacity of the compounds to an amyloid β peptide aggregate was quantitatively measured by a thioflavin-T fluorescence inhibition test. […] The resultant solution was cause to react for 30 minutes at 23° C. with the light shielded. Then, the fluorescence of thioflavin-T was measured under a condition of Ex=440 nm, Em=490 nm, Cutoff filter=475 nm. The IC50 values were calculated by using an analysis software, GraphPad PRISM Ver.5 (GraphPad Software, Inc.).

[2] = target: amyloid β peptide aggregates (Homo sapiens (Human), UniProt P05067); assay: Binding to and release from precipitated amyloid β peptide aggregates (absorbance of supernatant); conditions: compound 2 μg/mL in phosphate buffer, 1 hour reaction
Description: Each of compound 23, compound 1, and compound 24 is dissolved at a concentration of 2 μg/mL, in a phosphate buffer, and then amyloid β peptide aggregates are added to each solution, and the resultant solution is caused to react for 1 hour. Then, the solution is centrifuged for 10 minutes at 6,000 rpm, to separate the amyloid β peptide aggregates. A supernatant was removed, and an absorbance measurement was performed to measure the quantity of the compound that had not bound to the amyloid peptide aggregates and that were contained in the supernatant. The obtained quantity was subtracted from the original quantity of the compound, whereby the quantity of the compound that had bound to the amyloid β peptide aggregates was calculated.
Next, the precipitated amyloid β peptide aggregates were washed, a buffer was added thereto, and the quantity of the compound that got released was measured. Then, the rate of the compound that had bound to amyloid β peptide aggregates and then was eluted into the buffer was calculated using the original quantity of the compound as 100%.

amyloid β peptide aggregates (1-40), sequence (P05067 672-711): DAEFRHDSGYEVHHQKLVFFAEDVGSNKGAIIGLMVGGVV
amyloid β peptide aggregates, sequence (P05067 672-711): as above

Structure (SMILES)	IC50 ([1]; pH 7.4) [µM]	melting point	binding to amyloid β peptide aggregates (in words) [1]	binding rate to amyloid β peptide aggregates [2] [%]	solubility remark in amyloid binding test ([1]; pH 7.4)
O=C(O)CCC(C(=O)/C=C/c1ccc(O)c(OC(F)(F)F)c1)C(=O)/C=C/c1ccc(O)c(OC(F)(F)F)c1 [Compound 2, 1,7-bis(4′-hydroxy-3′-trifluoromethoxyphenyl)-4-carboxylethyl-1,6-heptadiene-3,5-dione]	1.3	–	–	–	–
COC(=O)CCC(C(=O)/C=C/c1ccc(OC)c(F)c1)C(=O)/C=C/c1ccc(OC)c(F)c1 [Compound 3]	–	170 to 171 °C	–	–	–
COc1ccc(/C=C/C(=O)C(CCC(=O)O)C(=O)/C=C/c2ccc(OC)c(F)c2)cc1F [Compound 4]	–	171 to 172 °C	–	–	–
COC(=O)CC(C(=O)/C=C/c1ccc(O)c(OC(F)(F)F)c1)C(=O)/C=C/c1ccc(O)c(OC(F)(F)F)c1 [Compound 5]	0.52	140 to 141 °C	–	–	–
COC(=O)CCCC(C(=O)/C=C/c1ccc(O)c(OC(F)(F)F)c1)C(=O)/C=C/c1ccc(O)c(OC(F)(F)F)c1 [Compound 6]	0.31	147 to 148 °C	–	–	–
CCOC(=O)C(C(=O)/C=C/c1ccc(O)c(OC(F)(F)F)c1)C(=O)/C=C/c1ccc(O)c(OC(F)(F)F)c1 [Compound 7]	0.14	179 to 180 °C	–	–	–
CCOC(=O)CCC(C(=O)/C=C/c1ccc(O)c(OC(F)(F)F)c1)C(=O)/C=C/c1ccc(O)c(OC(F)(F)F)c1 [Compound 8]	0.38	155 to 156 °C	–	–	–
CC(C)(C)OC(=O)CCC(C(=O)/C=C/c1ccc(O)c(OC(F)(F)F)c1)C(=O)/C=C/c1ccc(O)c(OC(F)(F)F)c1 [Compound 9]	0.65	175 °C	–	–	–
CC(C)OC(=O)CCC(C(=O)/C=C/c1ccc(O)c(OC(F)(F)F)c1)C(=O)/C=C/c1ccc(O)c(OC(F)(F)F)c1 [Compound 10]	–	191 °C	–	–	–
COC(=O)CCC(C(=O)/C=C/c1cc(F)c(O)c(F)c1)C(=O)/C=C/c1cc(F)c(O)c(F)c1 [Compound 11]	–	178 to 179 °C	–	–	–
COc1ccc(/C=C/C(=O)C(CCC(=O)[O-])C(=O)/C=C/c2ccc(OC)c(F)c2)cc1F.[Na+] [Compound 12]	–	> 200 °C	–	–	–
CC(=O)OCCCC(C(=O)/C=C/c1ccc(O)c(OC(F)(F)F)c1)C(=O)/C=C/c1ccc(O)c(OC(F)(F)F)c1 [Compound 13, 1,7-bis(4′-hydroxy-3′-trifluoromethoxyphenyl)-4-acetoxypropyl-1,6-heptadiene-3,5-dione]	–	130 to 131 °C	–	–	–
COC(=O)CCC(C(=O)/C=C/c1ccc(O)c(C(F)(F)F)c1)C(=O)/C=C/c1ccc(O)c(C(F)(F)F)c1 [Compound 14]	0.36	183 °C	–	–	–
N#CCCC(C(=O)/C=C/c1ccc(O)c(OC(F)(F)F)c1)C(=O)/C=C/c1ccc(O)c(OC(F)(F)F)c1 [Compound 15]	0.3	134 to 135 °C	–	–	–
CC(C(=O)/C=C/c1ccc(O)c(OC(F)(F)F)c1)C(=O)/C=C/c1ccc(O)c(OC(F)(F)F)c1 [Compound 16]	0.32	178 to 179 °C	–	–	–
COC(=O)CCC(C(=O)C=Cc1ccc(OC(C)=O)c(OC(F)(F)F)c1)C(=O)C=Cc1ccc(OC(C)=O)c(OC(F)(F)F)c1 (centres unmarked) [Compound 17, 1,7-bis(4′-acetoxy-3′-trifluoromethoxyphenyl)-4-methoxycarbonylethyl-1,6-heptadiene-3,5-dione]	–	149 to 150 °C	–	–	–
COC(=O)CCC(C(=O)/C=C/c1ccc(O)c(OC(F)(F)F)c1)C(=O)/C=C/c1ccc(OC(C)=O)c(OC(F)(F)F)c1 (centres unmarked) [Compound 18]	–	124 to 126 °C	–	–	–
COCOCCCC(C(=O)/C=C/c1ccc(O)c(OC(F)(F)F)c1)C(=O)/C=C/c1ccc(O)c(OC(F)(F)F)c1 [Compound 20]	0.5	–	–	–	–
CN(C)C(=O)CCC(C(=O)/C=C/c1ccc(O)c(OC(F)(F)F)c1)C(=O)/C=C/c1ccc(O)c(OC(F)(F)F)c1 [Compound 21]	0.5	192 to 193 °C	–	–	–
O=C(/C=C/c1ccc(O)c(OC(F)(F)F)c1)C(CCOCCO)C(=O)/C=C/c1ccc(O)c(OC(F)(F)F)c1 [Compound 22, 1,7-bis(4′-hydroxy-3′-trifluoromethoxyphenyl)-4-(2′-hydroxyethoxyethyl)-1,6-heptadiene-3,5-dione]	0.7	112 to 114 °C	–	–	–
O=C(/C=C/c1ccc(O)c(OC(F)(F)F)c1)CC(=O)/C=C/c1ccc(O)c(OC(F)(F)F)c1 [Compound 23]	0.21	172 to 173 °C	strongly bound	85	–
CC(C)(C(=O)/C=C/c1ccc(O)c(OC(F)(F)F)c1)C(=O)/C=C/c1ccc(O)c(OC(F)(F)F)c1 [Compound 24, reference compound]	> 15	–	scarcely bound	27	–
COC(=O)COc1ccc(/C=C/C(=O)CC(=O)/C=C/c2ccc(O)c(OC)c2)cc1OC [Compound 25]	0.14	88 to 90 °C	–	–	–
COc1cc(/C=C/C(=O)CC(=O)/C=C/c2ccc(OCC(=O)O)c(OC)c2)ccc1O [Compound 26]	0.31	190 to 192 °C (dec.)	–	–	–
COc1cc(/C=C/C(=O)CC(=O)/C=C/c2ccc(O)c(C(F)(F)F)c2)ccc1O [Compound 27]	0.13	200 °C	–	–	–
CNc1ccc(/C=C/C(=O)CC(=O)/C=C/c2ccc(NC)c(C(F)(F)F)c2)cc1C(F)(F)F [Compound 28]	5.8	192 to 194 °C	–	–	hardly soluble
COc1cc(/C=C/C(=O)CC(=O)/C=C/c2cncc(C(F)(F)F)c2)ccc1O [Compound 29]	0.1	187 to 189 °C	–	–	–
COC(=O)CCC(C(=O)/C=C/c1ccc(O)c(OC(F)(F)F)c1)C(=O)/C=C/c1ccco1 (centres unmarked) [Compound 30]	0.65	141 °C	–	–	–
